According to US20120034193A1, “TREATMENT OF NEUROTROPHIC FACTOR MEDIATED DISORDERS” (priority 2009, published 2012):

Assays:
[1] = test system: phosphorylated CREB (pCREB); assay: Phosphorylated CREB in CHO cells (immunoblot); assay type: cell-based, Chinese hamster; conditions: 10 μM, 24 h, control 0.729 ± 0.112
Description: The CHO were incubated with DMSO (0.5%) or sarsasapogenin (10 μM) for 24 h. The cells were then washed with cold PBS, lysed in sodium dodecyl sulfate (SDS) buffer, boiled for 5 min and the protein content measured by the Bradford method. The samples were then separated on SDS polyacrylamide gels and transferred to PVDF (Bio-Rad) membrane. After exposure for 1 h in 5% skimmed milk powder, membranes were incubated overnight at 4° C. in primary antibody: mouse pCREB (Upsdate, 1:1000) and mouse β-actin (Santa Cruz, 1:1000). The membranes were then incubated in peroxidase conjugated secondary antibody (Wuhan Boster Biology Technology, China. 1:2000) for 1 h at room temperature and developed with ECL reagents (Pierce). Membranes were stripped by incubating in 2-mercaptoethanol (100 mM), SDS (2%), Tris HCl (62.5 mM) at pH 6.8 and 50° C. for 30 min Densitometric quantification of immunostaining was performed using Image J analysis system with an image analyzer (Gel Doc 2000, Bio-Rad). The relative amount of immunostaining of each band of pCREB was normalised to the β-actin band run in the same experiment and expressed as arbitrary units.

Dopamine D1 = target: T1, Dopamine D1 (Homo sapiens, UniProt P21728); assay: Receptor binding assay; conditions: sarsasapogenin 10 μM
T1 construct: host or cells: tissue or cell homogenate, not specified
Description: (§1) The receptor binding was investigated using the following method: Sarsasapogenin was incubated with tissue or cell homogenate that expressed the receptor of interest and a known concentration a radiolabelled compound with affinity for the receptor of interest. After the incubation period the non-bound radiolabelled compound was removed and the amount of specific binding was quantified. The amount of specific binding in the presence and absence of sarsasapogenin were compared and the percent inhibition of the binding of the radiolabelled compound by sarsasapogenin was calculated. The source of the receptor, the incubation conditions, the radiolabelled compound used varied depending on each specific assay.

Muscarinic M5 = target: T2, Muscarinic M5 (Homo sapiens, UniProt P08912); assay: Receptor binding assay; conditions: sarsasapogenin 10 μM
T2 construct: host or cells: tissue or cell homogenate, not specified
Description: as §1

Muscarinic M2 = target: T3, Muscarinic M2 (Homo sapiens, UniProt P08172); assay: Receptor binding assay; conditions: sarsasapogenin 10 μM
T3 construct: host or cells: tissue or cell homogenate, not specified
Description: as §1

Muscarinic M4 = target: T4, Muscarinic M4 (Homo sapiens, UniProt P08173); assay: Receptor binding assay; conditions: sarsasapogenin 10 μM
T4 construct: host or cells: tissue or cell homogenate, not specified
Description: as §1

Transporter, Monoamine = assay: Binding assay; parameters: species or system Rabbit; conditions: smilagenin 1 μM
Description: as §1
(§2) Using the same methods as described above, the binding of smilagenin (1 μM) to the receptors listed in Table 2 below, and the effect of smilagenin on the activity of the enzymes listed in Table 2 below, were investigated.

[2] = Long term oral toxicity study, mice; assay type: in vivo; conditions: high doses, up to 52 weeks in mice
Glutamate, NMDA, Agonism = assay: Binding assay; parameters: species or system Rat; conditions: smilagenin 1 μM
Description: as §1, §2

Potassium Channel [SKCA] = assay: Binding assay; parameters: species or system Rat; conditions: smilagenin 1 μM
Description: as §1, §2

Potassium Channel [KA] = assay: Binding assay; parameters: species or system Rat; conditions: smilagenin 1 μM
Description: as §1, §2

[3] = test system: Inositol trisphosphate IP3; assay: Binding assay; parameters: species or system Rat; conditions: smilagenin 1 μM
Description: as §1, §2

[4] = test system: Calcium Channel L-Type, Dihydropyridine; assay: Binding assay; parameters: species or system Rat; conditions: smilagenin 1 μM
Description: as §1, §2

[5] = test system: GABAA Chloride Channel, TBOB; assay: Binding assay; parameters: species or system Rat; conditions: smilagenin 1 μM
Description: as §1, §2

Transporter, GABA = assay: Binding assay; parameters: species or system Rat; conditions: smilagenin 1 μM
Description: as §1, §2

Glutamate, AMPA = assay: Binding assay; parameters: species or system Rat; conditions: smilagenin 1 μM
Description: as §1, §2

Glutamate, Kainate = assay: Binding assay; parameters: species or system Rat; conditions: smilagenin 1 μM
Description: as §1, §2

GABAA Muscimol, Central = assay: Binding assay; parameters: species or system Rat; conditions: smilagenin 1 μM
Description: as §1, §2

Gabapentin = assay: Binding assay; parameters: species or system Rat; conditions: smilagenin 1 μM
Description: as §1, §2

[6] = test system: Calcium Channel L-Type, Phenylalkylamine; assay: Binding assay; parameters: species or system Rat; conditions: smilagenin 1 μM
Description: as §1, §2

[7] = test system: GABAA Flunitrazepam, Central; assay: Binding assay; parameters: species or system Rat; conditions: smilagenin 1 μM
Description: as §1, §2

[8] = test system: Glutamate, NMDA, Phencyclidine; assay: Binding assay; parameters: species or system Rat; conditions: smilagenin 1 μM
Description: as §1, §2

Thyroid Hormone = assay: Binding assay; parameters: species or system Rat; conditions: smilagenin 1 μM
Description: as §1, §2

Purinergic P2Y = assay: Binding assay; parameters: species or system Rat; conditions: smilagenin 1 μM
Description: as §1, §2

Rolipram = assay: Binding assay; parameters: species or system Rat; conditions: smilagenin 1 μM
Description: as §1, §2

Sodium Channel, Site 2 = assay: Binding assay; parameters: species or system Rat; conditions: smilagenin 1 μM
Description: as §1, §2

[9] = test system: Calcium Channel L-Type, Benzothiazepine; assay: Binding assay; parameters: species or system Rat; conditions: smilagenin 1 μM
Description: as §1, §2

[10] = test system: Glutamate, NMDA, Polyamine; assay: Binding assay; parameters: species or system Rat; conditions: smilagenin 1 μM
Description: as §1, §2

Imidazoline I2, central = assay: Binding assay; parameters: species or system Rat; conditions: smilagenin 1 μM
Description: as §1, §2

T3 sequence (P08172 whole entry): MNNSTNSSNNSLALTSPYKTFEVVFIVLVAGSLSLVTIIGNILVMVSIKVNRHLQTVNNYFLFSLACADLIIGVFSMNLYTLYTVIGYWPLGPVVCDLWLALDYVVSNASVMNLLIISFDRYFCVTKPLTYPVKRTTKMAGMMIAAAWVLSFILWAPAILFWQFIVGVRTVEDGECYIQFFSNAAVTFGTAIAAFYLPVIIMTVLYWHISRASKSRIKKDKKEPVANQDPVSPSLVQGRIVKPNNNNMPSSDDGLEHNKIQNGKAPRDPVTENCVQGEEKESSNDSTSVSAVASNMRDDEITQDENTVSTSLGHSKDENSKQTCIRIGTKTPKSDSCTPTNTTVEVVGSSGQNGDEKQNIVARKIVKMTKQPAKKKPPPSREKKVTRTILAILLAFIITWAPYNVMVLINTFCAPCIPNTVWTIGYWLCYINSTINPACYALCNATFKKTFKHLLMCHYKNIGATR
T4 sequence (P08173 whole entry): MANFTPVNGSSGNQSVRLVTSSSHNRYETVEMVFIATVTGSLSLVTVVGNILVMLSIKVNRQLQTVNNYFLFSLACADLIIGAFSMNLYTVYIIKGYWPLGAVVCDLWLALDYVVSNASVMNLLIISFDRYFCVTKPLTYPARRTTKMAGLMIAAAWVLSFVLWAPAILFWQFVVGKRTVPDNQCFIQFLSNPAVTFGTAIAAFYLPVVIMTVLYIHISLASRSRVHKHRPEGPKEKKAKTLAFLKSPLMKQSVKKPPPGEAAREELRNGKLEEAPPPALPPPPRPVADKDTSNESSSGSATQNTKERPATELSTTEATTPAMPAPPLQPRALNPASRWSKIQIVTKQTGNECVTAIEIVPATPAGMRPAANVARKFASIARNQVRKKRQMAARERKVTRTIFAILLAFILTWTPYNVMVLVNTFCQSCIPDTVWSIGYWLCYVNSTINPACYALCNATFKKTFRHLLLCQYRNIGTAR
T2 sequence (P08912 whole entry): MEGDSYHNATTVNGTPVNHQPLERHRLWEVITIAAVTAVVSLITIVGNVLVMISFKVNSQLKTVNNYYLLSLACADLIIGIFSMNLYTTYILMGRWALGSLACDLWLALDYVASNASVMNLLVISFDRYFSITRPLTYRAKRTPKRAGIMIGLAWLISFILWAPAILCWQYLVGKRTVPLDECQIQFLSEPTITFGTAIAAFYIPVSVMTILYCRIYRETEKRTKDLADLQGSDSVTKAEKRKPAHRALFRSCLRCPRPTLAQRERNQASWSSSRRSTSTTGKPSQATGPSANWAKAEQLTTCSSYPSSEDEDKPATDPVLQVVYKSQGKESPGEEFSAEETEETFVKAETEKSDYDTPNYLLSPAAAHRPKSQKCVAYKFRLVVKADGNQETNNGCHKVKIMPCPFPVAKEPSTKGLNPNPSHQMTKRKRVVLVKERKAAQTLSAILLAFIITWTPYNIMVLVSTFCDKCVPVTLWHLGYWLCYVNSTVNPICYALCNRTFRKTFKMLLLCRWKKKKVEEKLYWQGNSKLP
T1 sequence (P21728 whole entry): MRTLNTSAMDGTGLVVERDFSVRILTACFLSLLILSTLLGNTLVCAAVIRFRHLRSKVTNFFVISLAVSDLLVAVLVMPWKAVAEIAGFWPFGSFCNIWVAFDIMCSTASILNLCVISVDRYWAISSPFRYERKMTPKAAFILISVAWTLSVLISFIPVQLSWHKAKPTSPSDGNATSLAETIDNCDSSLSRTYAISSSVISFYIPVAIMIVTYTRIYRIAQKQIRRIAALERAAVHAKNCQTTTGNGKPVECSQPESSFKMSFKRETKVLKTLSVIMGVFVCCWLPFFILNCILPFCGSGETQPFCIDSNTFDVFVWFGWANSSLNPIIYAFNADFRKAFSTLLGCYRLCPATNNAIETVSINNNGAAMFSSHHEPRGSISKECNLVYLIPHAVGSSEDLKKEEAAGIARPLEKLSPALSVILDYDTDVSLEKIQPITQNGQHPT

In the case of `C[C@H]1CC[C@@]2(OC1)O[C@H]1C[C@H]3[C@@H]4CC[C@@H]5C[C@@H](O)CC[C@]5(C)[C@H]4CC[C@]3(C)[C@H]1[C@@H]2C` [Sarsasapogenin, sarsasapogenin], the “Phosphorylated CREB (Arbitary units)” value [1] is reported as 1.342 ± 0.084^++ Arbitary units, the “Effect (%)” value (Dopamine D1) is reported as “NS (NS = No significant response. Significance was taken as ≧30% stimulation or inhibition)” and the “Effect (%)” value (Muscarinic M5) is reported as “NS (NS = No significant response. Significance was taken as ≧30% stimulation or inhibition)”. For the same compound, the “Effect (%)” value (Muscarinic M2) was “NS (NS = No significant response. Significance was taken as ≧30% stimulation or inhibition)” and the “Effect (%)” value (Muscarinic M4) was “NS (NS = No significant response. Significance was taken as ≧30% stimulation or inhibition)”.

In the case of `C[C@@H]1CC[C@@]2(OC1)O[C@H]1C[C@H]3[C@@H]4CC[C@@H]5C[C@@H](O)CC[C@]5(C)[C@H]4CC[C@]3(C)[C@H]1[C@@H]2C` [Smilagenin, smilagenin], the “Effect (%)” value (Transporter, Monoamine) is reported as “NS (NS = No significant response. Significance was taken as ≧30% stimulation or inhibition)”, the Long term toxicity [2] is reported as “without showing any signs of toxicity or adverse events” and the “Effect (%)” value (Glutamate, NMDA, Agonism) is reported as “NS (NS = No significant response. Significance was taken as ≧30% stimulation or inhibition)”. For the same compound, the “Effect (%)” value (Potassium Channel [SKCA]) was “NS (NS = No significant response. Significance was taken as ≧30% stimulation or inhibition)”, the “Effect (%)” value (Potassium Channel [KA]) was “NS (NS = No significant response. Significance was taken as ≧30% stimulation or inhibition)” and the “Effect (%)” value [3] was “NS (NS = No significant response. Significance was taken as ≧30% stimulation or inhibition)”. For the same compound, the “Effect (%)” value [4] was “NS (NS = No significant response. Significance was taken as ≧30% stimulation or inhibition)”, the “Effect (%)” value [5] was “NS (NS = No significant response. Significance was taken as ≧30% stimulation or inhibition)” and the “Effect (%)” value (Transporter, GABA) was “NS (NS = No significant response. Significance was taken as ≧30% stimulation or inhibition)”. For the same compound, the “Effect (%)” value (Glutamate, AMPA) was “NS (NS = No significant response. Significance was taken as ≧30% stimulation or inhibition)”, the “Effect (%)” value (Glutamate, Kainate) was “NS (NS = No significant response. Significance was taken as ≧30% stimulation or inhibition)” and the “Effect (%)” value (GABAA Muscimol, Central) was “NS (NS = No significant response. Significance was taken as ≧30% stimulation or inhibition)”. The “Effect (%)” value (Gabapentin) was “NS (NS = No significant response. Significance was taken as ≧30% stimulation or inhibition)”, the “Effect (%)” value [6] was “NS (NS = No significant response. Significance was taken as ≧30% stimulation or inhibition)” and the “Effect (%)” value [7] was “NS (NS = No significant response. Significance was taken as ≧30% stimulation or inhibition)”. The “Effect (%)” value [8] was “NS (NS = No significant response. Significance was taken as ≧30% stimulation or inhibition)”, the “Effect (%)” value (Thyroid Hormone) was “NS (NS = No significant response. Significance was taken as ≧30% stimulation or inhibition)” and the “Effect (%)” value (Purinergic P2Y) was “NS (NS = No significant response. Significance was taken as ≧30% stimulation or inhibition)”. For the same compound, the “Effect (%)” value (Rolipram) was “NS (NS = No significant response. Significance was taken as ≧30% stimulation or inhibition)”, the “Effect (%)” value (Sodium Channel, Site 2) was “NS (NS = No significant response. Significance was taken as ≧30% stimulation or inhibition)” and the “Effect (%)” value [9] was “NS (NS = No significant response. Significance was taken as ≧30% stimulation or inhibition)”. The “Effect (%)” value [10] was “NS (NS = No significant response. Significance was taken as ≧30% stimulation or inhibition)” and the “Effect (%)” value (Imidazoline I2, central) was “NS (NS = No significant response. Significance was taken as ≧30% stimulation or inhibition)”.
